Results reported in PMC13586308, “Cell type–selective targeting by heterobifunctional protein binders via in-cell enrichment” (Nature Communications, 2026).
Like-named read-outs stand apart in the source and are kept apart here.

How the values were obtained:
FKBP12 [1] = target: T1, FKBP12 (Homo sapiens, UniProt P62942); experiment: competitive fluorescence polarization assay, binding to FKBP12; settings: competitive FP assay
BRD4^BD1 = target: T2, BRD4^BD1 (Homo sapiens, UniProt O60885); experiment: competitive fluorescence polarization assay, BRD4 BD1 -/+ presenter protein; format: binding
T2 construct: to the isolated BD1 and BD2 domains of BRD2, BRD3 and BRD4

BRD4^BD2 = target: T3, BRD4^BD2 (Homo sapiens, UniProt O60885); experiment: competitive fluorescence polarization assay, BRD4 BD2 -/+ presenter protein; format: binding
T3 construct: to the isolated BD1 and BD2 domains of BRD2, BRD3 and BRD4

BRD4 43-463 = BRD4 43-463 (Homo sapiens, UniProt O60885); experiment: competitive FP assay, BRD4 tandem bromo domain construct; format: binding
BRD4 43-463 Y390A [2] = target: BRD4 43-463 Y390A (Homo sapiens, UniProt O60885, Y390A); experiment: competitive FP assay, BRD4 tandem construct Y390A; format: binding
BRD4 43-463 Y390A [3] = experiment: competitive FP assay, BRD4 tandem construct Y390A; format: binding
BRD4 43-463 Y97A [4] = target: BRD4 43-463 Y97A (Homo sapiens, UniProt O60885, Y97A); experiment: competitive FP assay, BRD4 tandem construct Y97A; format: binding
BRD4 43-463 Y97A [5] = experiment: competitive FP assay, BRD4 tandem construct Y97A; format: binding
BRD2BD1 = target: T4, BRD2BD1 (Homo sapiens, UniProt P25440); experiment: competitive FP assay, BRD2 BD1 -/+ FKBP12; format: binding
T4 construct: to the isolated BD1 and BD2 domains of BRD2, BRD3 and BRD4

BRD2BD2 = BRD2BD2 (Homo sapiens, UniProt P25440); experiment: competitive FP assay, BRD2 BD2 -/+ FKBP12; format: binding
BRD3BD1 = target: T5, BRD3BD1 (Homo sapiens, UniProt Q15059); experiment: competitive FP assay, BRD3 BD1 -/+ FKBP12; format: binding
T5 construct: to the isolated BD1 and BD2 domains of BRD2, BRD3 and BRD4

BRD3BD2 = target: T6, BRD3BD2 (Homo sapiens, UniProt Q15059); experiment: competitive FP assay, BRD3 BD2 -/+ FKBP12; format: binding
T6 construct: to the isolated BD1 and BD2 domains of BRD2, BRD3 and BRD4

[6] = target: T7, His-BRD4^BD1 + eGFP-FKBP12 (Homo sapiens, UniProt O60885+P62942); experiment: HTRF ternary complex formation BRD4 BD1 + EGFP-FKBP12; format: binding; settings: eGFP-FKBP12 5 µM, His-BRD4^BD1 100 nM; read-out: HTRF BRD4^BD1 + GFP-FKBP12 Kd
T7 construct: the His6-tag of the respective BD1 or BD2 domain of BRD4 and EGFP-labeled FKBP12

[7] = target: T8, His-BRD4^BD2 + eGFP-FKBP12 (Homo sapiens, UniProt O60885+P62942); experiment: HTRF ternary complex formation BRD4 BD2 + EGFP-FKBP12; format: binding; settings: eGFP-FKBP12 5 µM, His-BRD4^BD2 100 nM; read-out: HTRF BRD4^BD2 + GFP-FKBP12 Kd
T8 construct: the His6-tag of the respective BD1 or BD2 domain of BRD4 and EGFP-labeled FKBP12

FKBP12 [8] = target: T1, FKBP12; experiment: NanoBRET FKBP12 in intact HEK293 cells; format: cell-based
BRD4 = target: T9, BRD4 (Homo sapiens, UniProt O60885); experiment: NanoBRET BRD4, transient BRD4-NanoLuc in HEK293T cells; format: cell-based; settings: intact HEK293 cells
T9 construct: full-length BRD4 fused to NanoLuc at N terminus; expressed in transfected cells; host or cells: HEK293T
Method: The NanoBRET assay was performed as described previously[26],[39]. To study BRD4 engagement, we employed two models: cells stably expressing BRD4-NanoLuc and cells with transient BRD4-NanoLuc expression. For stable cell lines, the coding sequence of human BRD4 (Isoform B) was fused in-frame to NanoLuc luciferase under the control of the human ubiquitin C (UbC) promoter, with left and right homology arms targeting the AAVS1 locus in intron 1 of the PPP1R12C gene to facilitate genomic integration. PC3 prostate cancer cells were transfected with this construct and vectors expressing Cas9 and an sgRNA targeting the AAVS1 locus using Lipofectamine 3000 (Invitrogen). Successful integrands were selected with blasticidin. Expression of the fusion protein was confirmed by western blot. For transient experiments, full-length BRD4 fused to NanoLuc at N terminus, was cloned into an expression plasmid and transfected into HEK293T cells using FuGENE HD (Promega, E2312), with protein expression allowed for 20 h. Serially diluted inhibitors and BRD Tracer-02 (Promega, TracerDB ID: T000022) at the Tracer KD concentration (from TracerDB)[40] were dispensed into white 384-well plates (Greiner 781207) using an ECHO 550 acoustic dispenser (Labcyte). The cells were trypsinized, resuspended in Opti-MEM without phenol red (Life Technologies), and seeded at 2 × 10^5 cells/mL. After equilibration for 2 h at 37 °C/5% CO₂ following compound treatment, the NanoBRET® NanoGlo Substrate + Extracellular NanoLuc® Inhibitor (Promega, N2162) was added according to the manufacturer’s protocol, and filtered luminescence was measured on a PHERAstar plate reader (BMG Labtech) using a donor (450 nm BP) and acceptor (610 nm LP) filter pair. Competitive displacement data were analyzed using GraphPad Prism 9 with a normalized 3-parameter curve fit: Y = 100/(1 + 10^(X − log IC₅₀)). For BRET measurements after FKBP12 knockdown in stably expressing BRD4 Nano-Luc reporter cell line, 10 nL/per well of the FKBP12 PROTAC was pipetted to each well using Labcyte to achieve the final concentration of 200 nM and the plated cells were incubated over-night at 37 °C and 5% CO2. BRET measurements were performed as outlined above.

MV4-11 cells = experiment: CellTiter-Glo cell viability, MV4-11; format: cell-based, human; settings: Homo sapiens, MV4-11, 120 h; five days, without FKBP12 PROTAC; read-out: Cell toxicity (MV4-11) - FKBP12 PROTAC IC50
[9] = ratio of binding in absence or presence of FKBP12

Chain of BRD2BD2 (P25440 344-453 limits assumed): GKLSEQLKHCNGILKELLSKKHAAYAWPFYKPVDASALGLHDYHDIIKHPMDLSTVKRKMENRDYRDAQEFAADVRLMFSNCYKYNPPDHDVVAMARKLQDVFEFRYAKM
T6 sequence (Q15059 306-415 limits assumed): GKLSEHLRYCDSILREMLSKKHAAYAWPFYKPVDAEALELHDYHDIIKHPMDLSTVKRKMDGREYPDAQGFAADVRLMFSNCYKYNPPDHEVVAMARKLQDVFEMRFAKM
T4 sequence (P25440 74-180 limits assumed): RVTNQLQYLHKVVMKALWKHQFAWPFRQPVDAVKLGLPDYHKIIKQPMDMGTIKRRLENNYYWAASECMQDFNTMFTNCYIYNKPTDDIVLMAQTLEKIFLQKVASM
T5 sequence (Q15059 34-140 limits assumed): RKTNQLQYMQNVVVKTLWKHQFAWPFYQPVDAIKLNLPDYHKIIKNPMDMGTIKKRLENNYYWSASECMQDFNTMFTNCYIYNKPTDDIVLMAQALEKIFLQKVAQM

Structure (SMILES): Cc1sc2c(c1C)C(c1ccc(Cl)cc1)=NC(CC(=O)NCCOCCn1cc(COCC3CN(Cc4ccccn4)C(=O)C4CCCC3N4S(=O)(=O)c3cc(Cl)cc(Cl)c3)nn1)c1nnc(C)n1-2 (centres unmarked) [a1d]
- Kd (FKBP12 [1]): 1 nM
- Kd (BRD4^BD1; 15 µM FKBP51FK1, read-out: Binding to BRD4BD1 + FKBP51FK1 Kd): 500 ± 90 nM
- Kd (BRD4^BD1; absence of FKBP12, 2 nM JQ1-FL tracer, read-out: Binding to BRD4^BD1 - FKBP12 Kd): 450 ± 70 nM
- Kd (BRD4^BD1; absence of FKBP51FK1 (SI Table 3), read-out: Binding to BRD4BD1 - FKBP51FK1 Kd): 300 ± 50 nM
- Kd (BRD4^BD1; presence of 15 µM FKBP12, read-out: Binding to BRD4^BD1 + FKBP12 Kd (converted)): 25 nM
- α BRD4^BD1 (binding cooperativity factor) (BRD4^BD1; [9]): 18
- Kd (BRD4^BD1; values quoted in rebuttal letter (earlier version of Tab. 1), read-out: binding to BRD4BD1 + FKBP12): 26 nM
- Kd (BRD4^BD2; 15 µM FKBP51FK1, read-out: Binding to BRD4BD2 + FKBP51FK1 Kd): 470 ± 80 nM
- Kd (BRD4^BD2; absence of FKBP12, 2 nM JQ1-FL tracer, read-out: Binding to BRD4^BD2 - FKBP12 Kd): 320 ± 50 nM
- Kd (BRD4^BD2; absence of FKBP51FK1 (SI Table 3), read-out: Binding to BRD4BD2 - FKBP51FK1 Kd): 180 ± 30 nM
- Kd (BRD4^BD2; presence of 15 µM FKBP12, read-out: Binding to BRD4^BD2 + FKBP12 Kd (converted)): 70 nM
- α BRD4^BD2 (binding cooperativity factor) (BRD4^BD2; [9]): 4.5
- α BRD4 43-463 (BRD4 43-463): 6.7
- Kd (BRD4 43-463; Binding to BRD4 43-463 + FKBP12 Kd, 15 µM FKBP12): 26 ± 3 nM
- Kd (BRD4 43-463; Binding to BRD4 43-463 - FKBP12 Kd, absence of FKBP12): 175 ± 17 nM
- Kd (BRD4 43-463 Y390A [2]; Binding to BRD4 43-463 Y390A + FKBP12 Kd, 15 µM FKBP12): 18 ± 2 nM
- Kd (BRD4 43-463 Y390A [2]; absence of FKBP12): 183 ± 13 nM
- α BRD4 43-463 Y390A (BRD4 43-463 Y390A [3]): 10
- Kd (BRD4 43-463 Y97A [4]; Binding to BRD4 43-463 Y97A + FKBP12 Kd, 15 µM FKBP12): 59 ± 5 nM
- Kd (BRD4 43-463 Y97A [4]; Binding to BRD4 43-463 Y97A - FKBP12 Kd, absence of FKBP12): 130 ± 16 nM
- α BRD4 43-463 Y97A (BRD4 43-463 Y97A [5]): 2.2
- α BRD2BD1 (BRD2BD1): 7.2
- Kd (BRD2BD1; 15 µM FKBP12, read-out: Binding to BRD2BD1 + FKBP12 Kd): 36 ± 9 nM
- Kd (BRD2BD1; absence of FKBP12, read-out: Binding to BRD2BD1 - FKBP12 Kd): 260 ± 60 nM
- α BRD2BD2 (BRD2BD2): 2.5
- Kd (BRD2BD2; 15 µM FKBP12, read-out: Binding to BRD2BD2 + FKBP12 Kd): 75 ± 20 nM
- Kd (BRD2BD2; absence of FKBP12, read-out: Binding to BRD2BD2 - FKBP12 Kd): 190 ± 50 nM
- α BRD3BD1 (BRD3BD1): 7.4
- Kd (BRD3BD1; 15 µM FKBP12, read-out: Binding to BRD3BD1 + FKBP12 Kd): 23 ± 5 nM
- Kd (BRD3BD1; absence of FKBP12, read-out: Binding to BRD3BD1 - FKBP12 Kd): 170 ± 27 nM
- α BRD3BD2 (BRD3BD2): 1.0
- Kd (BRD3BD2; 15 µM FKBP12, read-out: Binding to BRD3BD2 + FKBP12 Kd): 140 ± 30 nM
- Kd (BRD3BD2; absence of FKBP12, read-out: Binding to BRD3BD2 - FKBP12 Kd): 150 ± 30 nM
- Kd [6]: 9 ± 3 nM
- Kd [7]: 26 ± 6 nM
- IC50 (FKBP12 [8]): 14 nM
- IC50 (BRD4): 820 nM
- IC50 (MV4-11 cells): 1.7 nM
